Results taken from US9688664B2, “Modulators of fatty acid amide hydrolase” (JANSSEN PHARMACEUTICA NV, priority 2010, dated 2017).
Entries after “also recorded” stand apart in the source; their conditions may differ. Read-outs that look alike come from different tables or passages of the source.

How the values were obtained:
[1] = tested on: rat; assay: Primary Observation (Irwin) Test in the rat; assay type: in vivo; details: for Hypothermia: at 15 to 60 min and at 180 min; for Decreased muscle tone (rats affected/tested): at 60 to 120 min
Procedure: Primary Observation (Irwin) Test in the Rat
The method, which detects the first toxic dose, the active dose-range and the main effects of a test substance on behavior and physiological function, follows that described by Irwin et al., Psychopharmacologia, 1968, 13, 222-257. […] All animals within a treatment group were observed simultaneously. Behavioral modifications, physiological and neurotoxicity symptoms, rectal temperature and pupil diameter were recorded according to a standardized observation grid derived from that of Irwin. The grid contains the following items: death, convulsions, tremor, Straub tail, altered activity, jumping, abnormal gait (rolling, tip-toe), motor uncoordination, altered abdominal muscle tone, loss of grasping, akinesia, catalepsy, loss of traction, loss of balance, fore-paw treading, writhes, piloerection, stereotypies (sniffing, chewing, head movements), head twitches, scratching, altered respiration, aggression, altered fear/startle, altered reactivity to touch, ptosis, exophthalmia, loss of righting reflex, loss of corneal reflex, analgesia, defecation/diarrhea, salivation, lacrimation, rectal temperature (hypothermia/hyperthermia) and pupil diameter (myosis/mydriasis). The test substances were evaluated at 2 doses (10 and 60 mg/kg), administered p.o. immediately before the test, and compared with a vehicle control group. Observations were performed 15, 30, 60, 120 and 180 minutes after administration of the test substances/vehicles and also 24 hours later.

[2] = in vivo; cited from earlier work
[3] = in vivo; cited from earlier work; remark: listed apart in the source
[4] = tested on: CREAE mice; details: cited from earlier work
[5] = target: CYP2D6 (Homo sapiens (Human), UniProt P10635); assay: Drug-Drug Interaction (DDI) assay, CYP inhibition in human liver microsomes
Chain of CYP2D6 (P10635 whole entry): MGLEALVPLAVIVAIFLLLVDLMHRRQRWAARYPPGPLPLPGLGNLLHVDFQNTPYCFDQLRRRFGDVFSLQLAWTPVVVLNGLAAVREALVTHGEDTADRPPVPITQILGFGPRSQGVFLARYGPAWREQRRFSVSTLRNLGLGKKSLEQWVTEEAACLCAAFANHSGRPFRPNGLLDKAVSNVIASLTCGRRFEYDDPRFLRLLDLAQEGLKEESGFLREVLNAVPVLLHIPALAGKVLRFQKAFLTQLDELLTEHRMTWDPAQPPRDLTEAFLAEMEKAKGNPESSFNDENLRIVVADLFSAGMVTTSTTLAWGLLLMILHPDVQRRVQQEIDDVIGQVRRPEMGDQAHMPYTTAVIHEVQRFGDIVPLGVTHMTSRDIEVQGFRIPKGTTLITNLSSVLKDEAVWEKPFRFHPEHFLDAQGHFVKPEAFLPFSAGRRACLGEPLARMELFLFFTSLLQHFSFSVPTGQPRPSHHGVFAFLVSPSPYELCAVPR
Procedure: Drug-Drug Interaction (DDI) Assay
The assay was set up and executed using a Biomek FXp robotic liquid handling workstation (Beckman Coulter Corp., Fullerton, Calif.), integrated with a Cytomat shaking incubator set at 37° C. […] A batch of human liver microsomes from 50 donors, pooled and characterized by BD Gentest, (Cat #457111, lot 01220, 20 mg/mL in 250 mM sucrose) was used. Each substrate was incubated at a protein concentration of 0.1, 0.15 or 0.2 mg/mL in a total incubation volume of 0.16 mL. The incubates were prepared in 100 mM potassium phosphate buffer (pH 7.4) supplemented with 5 mM magnesium chloride and 1 mM EDTA. Quinidine was used as a positive control inhibitor for CYP2D6. Quinidine was prepared as a working solution in organic solvent (primarily methanol, with DMSO and acetonitrile as secondary solvents) and was spiked into the microsomal suspension to yield the desired concentration level. The solution was then serially diluted with additional microsomal suspension to yield eight concentration levels. Final organic content was less than 0.07%. […] The final organic content was 0.2%. Incubations were performed in triplicate for each probe substrate.
The control inhibitor (quinidine) and marker substrate (dextromethorphan or bufuralol) were transferred to the incubation vessels (60 μL aliquots each). After a pre-incubation period at 37° C., the reactions were initiated by the addition of a 40 μL aliquot of NADPH regenerating system (BD Gentest). […] Incubation times were 12 minutes for both dextromethorphan and bufuralol. Reactions were terminated by the direct addition of acetonitrile (160 μL) to the incubation mix followed by transfer to a pooling plate containing additional acetonitrile (400 μL).
The incubation reactions were pooled by equal test compound or control inhibitor concentration, transferred to a Phenomenex Strata™ Impact protein precipitation filter plate containing acetonitrile and internal standards (100 μL of a mixture of the following deuterated compounds ranging in concentration from 0.5 to 2.8 μM: hydroxybufuralol-d9, dextrorphan-d3). The resulting filtrate was evaporated to dryness under a nitrogen flow, then reconstituted in 250 μL mobile phase (1:1 methanol:water, containing 0.1% acetic acid). Samples and standards were analyzed on a Sciex API4000 triple quadrupole mass spectrometer. The data were acquired in Analyst 1.4.1 (Applied Biosystems/MDS Sciex). For IC50 assays, the area ratios of the metabolite and internal standard chromatographic peaks were transferred to SigmaPlot (version 8.0) and plotted on a semi-log scale (percent residual activity vs. inhibitor concentration) to determine the IC50 value.

[6] = target: T1, FAAH (Homo sapiens (Human), UniProt O00519); assay: Assay Method 1: human FAAH assay (3H-anandamide hydrolysis in cell homogenate); assay type: biochemical; details: average of results
T1 sequence (O00519 whole entry): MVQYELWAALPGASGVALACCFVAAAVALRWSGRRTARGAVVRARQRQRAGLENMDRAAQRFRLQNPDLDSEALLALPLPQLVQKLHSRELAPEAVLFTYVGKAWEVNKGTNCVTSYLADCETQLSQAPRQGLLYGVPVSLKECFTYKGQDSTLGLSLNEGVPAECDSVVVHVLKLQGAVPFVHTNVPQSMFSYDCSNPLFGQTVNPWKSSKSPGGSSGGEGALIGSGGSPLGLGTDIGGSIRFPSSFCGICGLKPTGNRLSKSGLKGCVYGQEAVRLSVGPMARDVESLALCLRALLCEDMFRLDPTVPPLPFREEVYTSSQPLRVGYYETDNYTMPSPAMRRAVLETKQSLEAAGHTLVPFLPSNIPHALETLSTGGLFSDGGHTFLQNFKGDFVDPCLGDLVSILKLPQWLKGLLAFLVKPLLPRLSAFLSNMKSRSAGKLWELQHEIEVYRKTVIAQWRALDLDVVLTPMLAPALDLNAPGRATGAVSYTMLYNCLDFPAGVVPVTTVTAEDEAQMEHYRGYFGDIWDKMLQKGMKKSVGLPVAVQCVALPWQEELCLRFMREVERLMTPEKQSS
Procedure: A. Transfection of Cells with Human FAAH
(§1) A 10-cm tissue culture dish with a confluent monolayer of SK-N-MC cells was split 2 days (d) prior to transfection. Using sterile technique, the media was removed and the cells were detached from the dish by the addition of trypsin. One fifth of the cells were then placed onto a new 10-cm dish. Cells were grown in a 37° C. incubator with 5% CO2 in Minimal Essential Media Eagle with 10% Fetal Bovine Serum. After 2 d, cells were approximately 80% confluent. These cells were removed from the dish with trypsin and pelleted in a clinical centrifuge. The pellet was re-suspended in 400 μL complete media and transferred to an electroporation cuvette with a 0.4 cm gap between the electrodes. Supercoiled human FAAH cDNA (1 μg) was added to the cells and mixed. The voltage for the electroporation was set at 0.25 kV, and the capacitance was set at 960 μF. After electroporation, the cells were diluted into complete media (10 mL) and plated onto four 10-cm dishes. Because of the variability in the efficiency of electroporation, four different concentrations of cells were plated. The ratios used were 1:20, 1:10, and 1:5, with the remainder of the cells being added to the fourth dish. The cells were allowed to recover for 24 h before adding the selection media (complete media with 600 μg/mL G418). After 10 d, dishes were analyzed for surviving colonies of cells. […]

[7] = target: rat FAAH (Rattus norvegicus (Rat), UniProt P97612); assay: Assay Method 2: rat FAAH assay (3H-anandamide hydrolysis in cell homogenate); assay type: biochemical; details: average of results
Chain of rat FAAH (P97612 whole entry): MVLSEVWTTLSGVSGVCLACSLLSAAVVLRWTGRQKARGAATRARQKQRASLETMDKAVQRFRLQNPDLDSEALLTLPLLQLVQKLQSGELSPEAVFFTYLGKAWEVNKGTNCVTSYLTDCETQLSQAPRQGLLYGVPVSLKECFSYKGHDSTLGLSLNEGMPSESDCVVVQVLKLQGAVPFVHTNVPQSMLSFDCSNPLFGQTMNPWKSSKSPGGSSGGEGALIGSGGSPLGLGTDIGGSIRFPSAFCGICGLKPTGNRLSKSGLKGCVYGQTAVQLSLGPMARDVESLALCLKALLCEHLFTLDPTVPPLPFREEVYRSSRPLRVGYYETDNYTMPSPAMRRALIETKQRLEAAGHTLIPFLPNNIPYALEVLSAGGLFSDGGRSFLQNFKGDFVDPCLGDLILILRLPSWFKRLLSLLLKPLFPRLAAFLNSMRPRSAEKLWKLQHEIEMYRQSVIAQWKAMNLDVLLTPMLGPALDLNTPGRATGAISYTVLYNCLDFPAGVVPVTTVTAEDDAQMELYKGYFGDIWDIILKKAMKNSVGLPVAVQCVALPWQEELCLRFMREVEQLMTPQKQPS
Procedure: A. Transfection of Cells with Rat FAAH
as §1, with “rat” for “human”

[8] = tested on: rats; details: cited from earlier work
[9] = tested on: rats; details: cited from earlier work; remark: listed apart in the source
[10] = target: T1, FAAH; details: cited from earlier work
[11] = tested on: rats; details: cited from earlier work; remark: listed apart in the source
[12] = tested on: rats; details: rat; cited from earlier work
[13] = read-out: 2D6 Bufuralol IC50, substrate bufuralol
[14] = read-out: 2D6 Dextromethorphan IC50, substrate dextromethorphan

Cl.O=C(Nc1cnccc1Cl)N1CCN(Cc2ccc3c(c2)OC(F)(F)O3)CC1
Increased reactivity to touch (rats affected/tested) ([1]; 10 mg/kg p.o., at 180 min, hydrochloride): 1 out of 4 | Sedative/depressant effects (sedation, motor signs and hypothermia) ([1]; 60 mg/kg p.o.): not observed | Increased abdominal muscle tone (rats affected/tested) ([1]; 60 mg/kg p.o., at 60 min): 1 out of 4 | Increased reactivity to touch (rats affected/tested) ([1]; 60 mg/kg p.o., at 60 min): 1 out of the 4 | Increased reactivity to touch (rats affected/tested) ([1]; 60 mg/kg p.o., at 180 min): 1 out of the 4 | General effects in the Irwin Test ([1]; dose-range 10-60 mg/kg p.o.): weak and transient arousing effects in only one rat | Other signs ([1]; up to 24 hours after administration, 10-60 mg/kg p.o.): no other signs were observed

O=C(Nc1ccccc1)N1CCN(c2nc(-c3ccccc3)ns2)CC1 [4-(3-Phenyl-[1,2,4]thiadiazol-5-yl)-piperazine-1-carboxylic acid phenylamide]
efficacy in acute burn injury pain model [2]: efficacious | efficacy in neuropathic pain model [3]: efficacious

CCCCCCCCCCCCCCCCS(=O)(=O)F [AM374]
spasticity [4]: significantly reduce spasticity

Cl.O=C(Nc1cccnc1)N1CCN(Cc2ccc3c(c2)OC(F)(F)O3)CC1 [Comparator Compound HCl]
Increased reactivity to touch (rats affected/tested) ([1]; 10 mg/kg p.o., at 15 min): all 3 rats; also recorded: (3/3) at 15 | Sedative/depressant effects (sedation, motor signs and hypothermia) ([1]; 60 mg/kg p.o.): presence of sedative/depressant effects | Sedation (rats affected/tested) ([1]; 60 mg/kg p.o., 15 to 120 min): all 3 rats; also recorded: (3/3) 15 to 120 min | Hypothermia ([1]; 60 mg/kg p.o.): induced hypothermia; also recorded: slight induction at 15 | Decreased muscle tone (rats affected/tested) ([1]; 60 mg/kg p.o.): all 3 rats; also recorded: (3/3) at 60 to 120 | Abnormal gait (rolling) (rats affected/tested) ([1]; 60 mg/kg p.o., at 15 min): all 3 rats; also recorded: (3/3) at 15 min

O=C(Nc1cccnc1)N1CCN(Cc2ccc3c(c2)OC(F)(F)O3)CC1 [Comparator Compound]
Increased reactivity to touch (rats affected/tested) ([1]; 10 mg/kg p.o., at 15 min): all rats tested | Sedation (rats affected/tested) ([1]; 60 mg/kg p.o., 15 to 120 min): all rats tested | Hypothermia ([1]; 60 mg/kg p.o.): induced hypothermia | Decreased muscle tone (rats affected/tested) ([1]; 60 mg/kg p.o.): all rats | Abnormal gait (rolling) (rats affected/tested) ([1]; 60 mg/kg p.o., at 15 min): all rats tested | IC50 [5, 13]: 3200 nM | IC50 [5, 14]: 2000 nM

O=C(Nc1cnccc1Cl)N1CCN(Cc2ccc3c(c2)OC(F)(F)O3)CC1 [Example 1]
IC50 [6]: 75 nM | IC50 [7]: 320 nM | Increased reactivity to touch (rats affected/tested) ([1]; 10 mg/kg p.o., at 180 min): (1/4) at | Abnormal gait (rats affected/tested) ([1]; 60 mg/kg p.o.): (0/4) | Hypothermia (rats affected/tested) ([1]; 60 mg/kg p.o.): (0/4) | Sedation (rats affected/tested) ([1]; 60 mg/kg p.o.): (0/4) | Increased abdominal muscle tone (rats affected/tested) ([1]; 60 mg/kg p.o., at 60 min): (1/4) at 60 min | Increased reactivity to touch (rats affected/tested) ([1]; 60 mg/kg p.o., at 60 min): (1/4) at 60 min | Increased reactivity to touch (rats affected/tested) ([1]; 60 mg/kg p.o., at 180 min): (1/4) at 180 min | IC50 [5, 13]: 24000 nM | IC50 [5, 14]: 11000 nM

O=C(CCCCCCc1ccccc1)c1ncc(-c2ccccn2)o1 [OL-135]
analgesic efficacy/activity, hot plate [8]: analgesic activity | analgesic activity, tail immersion [9]: analgesic activity | FAAH inhibition [10]: potent inhibitor

NC(=O)c1cccc(-c2cccc(OC(=O)NC3CCCCC3)c2)c1 [URB-597]
analgesic efficacy/activity, hot plate [8]: analgesic efficacy | efficacy in model of anxiety [11]: efficacy | analgesic efficacy, formalin test [12]: analgesic efficacy
